Measurements as given in patent US7071205B2 (Ligand Pharmaceuticals Incorporated, priority 2002, dated 2006).
Where two headings read alike, the source gives them in different places.

Key:
hPR [1] = target: T1, hPR (Homo sapiens, UniProt P06401); assay: Cotransfection assay, PR antagonist activity in CV-1 cells; assay type: cell-based; details: for IC50: antagonist potency IC50; for PR Antagonist CV-1 Cells Efficacy (%): percent maximal response relative to reference antagonist
T1 sequence (P06401 1-933): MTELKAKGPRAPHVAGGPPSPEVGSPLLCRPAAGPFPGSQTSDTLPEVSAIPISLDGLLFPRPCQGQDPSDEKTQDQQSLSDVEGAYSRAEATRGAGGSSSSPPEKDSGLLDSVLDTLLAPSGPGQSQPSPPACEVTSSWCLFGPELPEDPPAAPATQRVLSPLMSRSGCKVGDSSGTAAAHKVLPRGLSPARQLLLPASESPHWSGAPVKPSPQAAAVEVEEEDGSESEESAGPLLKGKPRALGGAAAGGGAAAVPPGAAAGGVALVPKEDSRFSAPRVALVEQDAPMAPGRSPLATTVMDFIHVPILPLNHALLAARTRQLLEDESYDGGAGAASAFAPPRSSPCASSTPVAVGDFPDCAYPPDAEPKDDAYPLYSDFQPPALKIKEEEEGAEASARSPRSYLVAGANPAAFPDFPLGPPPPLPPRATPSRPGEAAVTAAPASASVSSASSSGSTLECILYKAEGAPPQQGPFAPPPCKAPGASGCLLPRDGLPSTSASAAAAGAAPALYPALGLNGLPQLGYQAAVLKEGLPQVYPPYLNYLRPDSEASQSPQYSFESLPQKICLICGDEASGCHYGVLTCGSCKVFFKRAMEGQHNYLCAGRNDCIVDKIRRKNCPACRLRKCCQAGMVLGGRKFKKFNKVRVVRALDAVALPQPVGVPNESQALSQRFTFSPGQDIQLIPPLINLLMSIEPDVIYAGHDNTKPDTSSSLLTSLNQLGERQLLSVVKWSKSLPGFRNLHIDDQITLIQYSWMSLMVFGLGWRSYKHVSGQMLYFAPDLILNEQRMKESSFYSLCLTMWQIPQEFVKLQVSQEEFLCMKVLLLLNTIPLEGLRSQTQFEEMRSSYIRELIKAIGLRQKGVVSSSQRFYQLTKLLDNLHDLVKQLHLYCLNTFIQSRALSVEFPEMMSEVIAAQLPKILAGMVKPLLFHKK

immature rabbits = assay: McPhail (Clauberg) assay of progestational activity; assay type: in vivo, rabbit; details: minimum active dose; estradiol-primed immature rabbits, uterine glandular changes
Method: The in vivo activity of selected hPR modulator compounds of the present invention were evaluated utilizing the McPhail assay, according to the following illustrative Examples. The Clauberg or McPhail assay is a classic assay utilizing rabbits to measure progestational activity. […] This is followed by treatment with a progestin, which causes a large change in the glandular content of the uterus. It is this change in the glandular component, which is a measure of the progestational activity of a progestin. The measurement of these glandular changes are carried out histologically using stained sections of the uterus. The in vivo potency of the progestins is presented as the minimum active dose (MAD) in mg/kg.

hPR-A = target: T2, hPR-A (Homo sapiens, UniProt P06401); assay: Receptor competitive binding assay
T2 sequence (P06401 1-769 isoform P06401-2): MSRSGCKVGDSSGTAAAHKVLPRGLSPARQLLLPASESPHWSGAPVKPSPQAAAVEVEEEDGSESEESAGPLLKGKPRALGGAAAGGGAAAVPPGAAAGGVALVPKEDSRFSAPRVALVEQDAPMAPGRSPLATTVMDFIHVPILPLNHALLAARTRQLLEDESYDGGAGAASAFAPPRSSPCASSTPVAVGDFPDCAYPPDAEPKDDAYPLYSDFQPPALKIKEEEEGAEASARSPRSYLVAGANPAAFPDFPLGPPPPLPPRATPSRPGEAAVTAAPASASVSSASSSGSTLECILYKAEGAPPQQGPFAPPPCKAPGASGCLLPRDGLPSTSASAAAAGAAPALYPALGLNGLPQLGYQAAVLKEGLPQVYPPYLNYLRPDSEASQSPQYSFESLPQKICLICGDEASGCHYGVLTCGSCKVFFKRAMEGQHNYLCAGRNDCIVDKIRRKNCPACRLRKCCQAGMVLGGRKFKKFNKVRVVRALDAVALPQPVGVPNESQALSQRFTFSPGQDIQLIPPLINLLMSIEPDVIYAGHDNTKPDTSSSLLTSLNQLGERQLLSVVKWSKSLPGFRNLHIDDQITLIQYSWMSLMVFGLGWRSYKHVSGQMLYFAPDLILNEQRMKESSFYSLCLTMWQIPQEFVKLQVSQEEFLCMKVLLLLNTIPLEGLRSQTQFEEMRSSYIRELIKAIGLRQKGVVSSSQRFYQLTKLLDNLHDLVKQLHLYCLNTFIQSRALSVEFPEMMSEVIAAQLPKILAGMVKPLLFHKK

hPR [2] = target: T1, hPR; assay: Cotransfection assay, PR agonist activity in CV-1 cells; assay type: cell-based; details: for PR Agonist CV-1 Cells Efficacy (%): MTV-LUC reporter, percent maximal response relative to progesterone
[3] = Table 2, repeats PR binding Ki of Table 1, read-out: ki
[4] = CV-1 cells, agonist potency EC50, read-out: PR Agonist CV-1 Cells Potency
[5] = Table 2, repeats PR agonist potency of Table 1, read-out: EC50

IC50 (hPR [1]) [nM] | Ki (hPR-A; [3]) [nM] | Ki (hPR-A; hPR-A, read-out: PR Binding Ki) [nM] | PR Agonist CV-1 Cells Efficacy (%) (hPR [2]; CV-1 cells) | EC50 (hPR [2]; [4]) [nM] | EC50 (hPR [2]; [5]) [nM] | Structure (SMILES) | PR Antagonist CV-1 Cells Efficacy (%) (hPR [1]) | MAD (immature rabbits) [mg/kg]
> 10000 | 6.4 | 6.4 | 168 | 3.6 | 3.6 | CC1=CC(C2Oc3ccc(F)cc3-c3ccc4c(c32)C(C)=CC(C)(C)N4)CCC1 (racemic) [Compound 24, (±)-(5l,1′l)-5-(3-methyl-2-cyclohexenyl)-9-fluoro-1,2-dihydro-2,2,4-trimethyl-5H-chromeno[3,4-f]quinoline] | na (na = not active (i.e. efficacy of <20 and potency of >10,000)) | 0.25
> 10000 | 3.9 | 3.9 | 139 | 3.4 | 3.4 | CC1=CC(C)(C)Nc2ccc3c(c21)C(C1CCC(C)=C1C)Oc1c(F)cc(F)cc1-3 (racemic) [Compound 71, (±)-(5l,1′l)-5-(2,3-dimethyl-2-cyclopentenyl)-7,9-difluoro-1,2-dihydro-2,2,4-trimethyl-5H-chromeno[3,4-f]quinoline] | na (na = not active (i.e. efficacy of <20 and potency of >10,000)) | 0.25
 |  |  | 166 |  |  | CC1=CC(C2Oc3c(F)cc(F)cc3-c3ccc4c(c32)C(C)=CC(C)(C)N4)CCC1 (single isomer, unassigned; (-)) [Compound 38, (−)-(5l,1′l)-5-(3-methyl-2-cyclohexenyl)-7,9-difluoro-1,2-dihydro-2,2,4-trimethyl-5H-chromeno[3,4-f]quinoline] | na (na = not active (i.e. efficacy of <20 and potency of >10,000)) | 0.10
